{"source": "PubChem BioAssay AID401", "about": "(SGCOxCompounds, 2006)"}
{"biological_target": "Tyrosine-protein phosphatase non-receptor type 7 (Homo sapiens) (UniProt P35236)", "sequence (P35236 whole entry, looked up)": "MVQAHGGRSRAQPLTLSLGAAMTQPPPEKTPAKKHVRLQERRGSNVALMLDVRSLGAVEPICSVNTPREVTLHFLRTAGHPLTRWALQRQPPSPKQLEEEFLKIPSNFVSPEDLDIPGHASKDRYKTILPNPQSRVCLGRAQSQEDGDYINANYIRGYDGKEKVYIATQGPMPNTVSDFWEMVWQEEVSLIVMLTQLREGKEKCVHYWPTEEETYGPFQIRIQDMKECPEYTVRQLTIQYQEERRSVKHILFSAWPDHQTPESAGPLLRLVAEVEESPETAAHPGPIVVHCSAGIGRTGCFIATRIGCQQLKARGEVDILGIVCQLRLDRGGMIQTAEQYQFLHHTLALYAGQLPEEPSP", "assay": "PTPN7 phosphatase inhibitors, biochemical, DiFMUP fluorescence, recombinant human enzyme (AID 401)", "details": "at 50 µM, enzyme 37.6 ng/mL, 25 °C, DTT 5 mM, hits give high values", "units": {"inhibition": "%"}}
{"smiles": "Cn1nc(-c2ccccc2)nc2c(=O)n(C)c(=O)nc1-2", "inhibition": 37}
{"smiles": "O=C(O)c1ccc(O)cn1.OO.[O]=[V]", "inhibition": 58.5}
{"smiles": "OO.OO.[K+].[O]=[V].c1cnc2c(c1)ccc1cccnc12", "inhibition": 55}
{"smiles": "O=C([O-])c1ccccn1.OO.OO.[K+].[K+].[O]=[V]", "inhibition": 71.5}
{"biological_target": "Tyrosine-protein phosphatase non-receptor type 7 (Homo sapiens) (UniProt P35236)", "assay": "PTPN7 phosphatase inhibitors, biochemical, DiFMUP fluorescence, recombinant human enzyme (AID 401)", "details": "at 50 µM, enzyme 55 ng/mL, 25 °C, DTT 5 mM, hits give high values", "units": {"inhibition": "%"}}
{"smiles": "Cc1ccc2nc(-c3cc(N=Cc4cc(C(=O)O)ccc4O)ccc3O)[nH]c2c1", "inhibition": 98}
{"smiles": "O=C1NC(=S)NC(=O)C1=C/C=C/c1ccco1", "inhibition": 97}
{"smiles": "Cc1c(Cl)c(C)c([N+](=O)[O-])c(O)c1C=Nc1ccc(O)cc1C(=O)O", "inhibition": 62}
{"smiles": "O=C1NC(=S)S/C1=C\\C=C\\c1ccc([N+](=O)[O-])o1", "inhibition": 99}
{"smiles": "Oc1c(Cl)c(Cl)c(O)c2nsnc12", "inhibition": 24}
{"smiles": "O=C(O)c1ccc(O)c(N2C(=O)Nc3ccccc3N2O)c1", "inhibition": 41}
{"smiles": "Cc1ccc(C)n1-c1ccc(C(=O)O)cc1O", "inhibition": 47}
{"smiles": "CC(C)CCN1C(=O)c2ccc(C(=O)Nc3ccc(O)cc3C(=O)O)cc2C1=O", "inhibition": 45}
{"smiles": "COc1ccc(OC)c(N=Cc2cc(C(=O)O)ccc2O)c1", "inhibition": 31}
{"smiles": "Cc1ccc(N=Cc2cc(C(=O)O)ccc2O)c(O)c1", "inhibition": 42}
{"smiles": "Cc1cc(C)c(N2C(=O)c3ccc(C(=O)Nc4ccc(O)cc4C(=O)O)cc3C2=O)c(C)c1", "inhibition": 44}
{"smiles": "CCOC(=O)c1ccc(N=Cc2cc(C(=O)O)ccc2O)cc1", "inhibition": 39}
{"smiles": "CC(=O)c1ccc2c(c1)C1C=CCC1C(C(=O)O)N2", "note": "(configuration not stated)", "inhibition": 89}
{"smiles": "O=C(O)c1ccc([O-])cn1.OO.OO.[K+].[K+].[O]=[V]", "inhibition": 76}
{"smiles": "CC1=C(C)OC(Nc2ccc(Cl)cc2C(=O)O)C=C1", "note": "(configuration not stated)", "inhibition": 25}
{"smiles": "O=C(COc1ccc([N+](=O)[O-])cc1)Nc1ccc(O)cc1C(=O)O", "inhibition": 13}
{"smiles": "COc1cccc(-c2nc3cc(N=Cc4cc(C(=O)O)ccc4O)ccc3o2)c1", "inhibition": 56}
{"smiles": "O=C(O)c1ccc(O)c(C=Nc2ccc3oc(-c4ccccc4)nc3c2)c1", "inhibition": 31}
{"smiles": "CCn1nc(/C=C/c2ccccc2)nc2c(=O)n(C)c(=O)nc1-2", "inhibition": 39}
{"smiles": "[NH-]CO.[NH-]CO.[NH-]CO.[NH-]CO.[O]=[V][O][V]=[O]", "inhibition": 58}
{"smiles": "Cc1ccc(C)n1-c1cc(C(=O)O)ccc1O", "inhibition": 77}
{"smiles": "Cc1cccc(O)c1N=Cc1cc(C(=O)O)ccc1O", "inhibition": 37}
{"smiles": "CC(C)CN1C(=O)c2ccc(C(=O)Nc3ccc(O)cc3C(=O)O)cc2C1=O", "inhibition": 26}
{"smiles": "CN(N=O)c1ccc(O)c(O)c1", "inhibition": 92}
{"smiles": "Cn1nc(/C=C/c2ccccc2)nc2c(=O)n(C)c(=O)nc1-2", "inhibition": 45}
{"smiles": "O=C(O)c1ccc(O)c(C=Nc2ccc3oc(-c4cccc(Cl)c4Cl)nc3c2)c1", "inhibition": 61}
{"smiles": "CCn1nc(-c2ccc(Cl)cc2)nc2c(=O)n(C)c(=O)nc1-2", "inhibition": 58}
{"smiles": "O=C(O)c1ccc(O)c(C=Nc2ccc3oc(-c4ccc(F)cc4Cl)nc3c2)c1", "inhibition": 100}
{"smiles": "COc1ccc(-c2nc3cc(N=Cc4cc(C(=O)O)ccc4O)ccc3o2)cc1", "inhibition": 80}
{"smiles": "O=C(O)c1ccc(O)c(C=Nc2cccc(-c3nc4ccccc4o3)c2)c1", "inhibition": 40}
{"smiles": "CCn1nc(-c2ccccc2)nc2c(=O)n(C)c(=O)nc1-2", "inhibition": 16}
{"smiles": "OO.OO.[K+].[O]=[V].c1ccc(-c2ccccn2)nc1", "inhibition": 69}
{"smiles": "NC1=NC(=O)/C(=C/C=C/c2ccc([N+](=O)[O-])o2)S1", "inhibition": 94}
{"smiles": "O=C(O)c1ccc(O)c(/C=N/N(CCO)C2=NS(=O)(=O)c3ccccc32)c1", "inhibition": 57}
{"smiles": "O=C(O)c1ccc(O)c(C=Nc2ccc3oc(-c4cccc(Cl)c4)nc3c2)c1", "inhibition": 25}
{"smiles": "CCn1nc(/C=C/c2ccccc2)[n+](=O)c2c(=O)n(C)c(=O)[nH]c21", "inhibition": 32}
{"smiles": "O=C(O)c1ccc(O)c(C=Nc2ccc3oc(-c4cc(Cl)ccc4Cl)nc3c2)c1", "inhibition": 39}
{"smiles": "O=C(Nc1ccc(O)cc1C(=O)O)c1ccc2c(c1)C(=O)N(CC1CCCO1)C2=O", "note": "(configuration not stated)", "inhibition": 35}
